Measurements reported in a compilation of properties of binary mixtures (doi:10.1007/s10953-021-01067-6).

Assay: xn = mol fraction of the nth substance listed
Conditions: 101.3 kPa

For CCCCCC[NH2+]CCN.O=S(=O)([N-]S(=O)(=O)C(F)(F)F)C(F)(F)F + O, the electrical conductivity (303.15 K, x1 = 0.401) was 0.251 S/m, the viscosity (303.15 K, x1 = 0.401) was 51.4 mPa·s and the electrical conductivity (303.15 K, x1 = 0.4387) was 0.209 S/m. For the same compound, the viscosity (303.15 K, x1 = 0.4387) was 66.6 mPa·s, the electrical conductivity (303.15 K, x1 = 0.5021) was 0.135 S/m and the viscosity (303.15 K, x1 = 0.5021) was 104 mPa·s. The electrical conductivity (303.15 K, x1 = 0.5762) was 0.066 S/m, the viscosity (303.15 K, x1 = 0.5762) was 117 mPa·s and the electrical conductivity (303.15 K, x1 = 0.6827) was 0.0619 S/m. It also gave a viscosity (303.15 K, x1 = 0.6827) of 168 mPa·s, an electrical conductivity (303.15 K, x1 = 0.8153) of 0.0416 S/m and a viscosity (303.15 K, x1 = 0.8153) of 226 mPa·s. For the same compound, the electrical conductivity (303.15 K, x1 = 0.8939) was 0.0284 S/m, the viscosity (303.15 K, x1 = 0.8939) was 260 mPa·s and the electrical conductivity (308.15 K, x1 = 0.401) was 0.324 S/m. The viscosity (308.15 K, x1 = 0.401) was 40.1 mPa·s, the electrical conductivity (308.15 K, x1 = 0.4387) was 0.267 S/m and the viscosity (308.15 K, x1 = 0.4387) was 51 mPa·s. For the same compound, the electrical conductivity (308.15 K, x1 = 0.5762) was 0.0972 S/m, the viscosity (308.15 K, x1 = 0.5762) was 86.6 mPa·s and the electrical conductivity (308.15 K, x1 = 0.6827) was 0.085 S/m. It also gave a viscosity (308.15 K, x1 = 0.6827) of 131 mPa·s, an electrical conductivity (308.15 K, x1 = 0.8153) of 0.0537 S/m and a viscosity (308.15 K, x1 = 0.8153) of 160 mPa·s. It also gave an electrical conductivity (308.15 K, x1 = 0.8939) of 0.0432 S/m, a viscosity (308.15 K, x1 = 0.8939) of 179 mPa·s and an electrical conductivity (313.15 K, x1 = 0.401) of 0.396 S/m. The viscosity (313.15 K, x1 = 0.401) was 31.8 mPa·s, the electrical conductivity (313.15 K, x1 = 0.4387) was 0.328 S/m and the viscosity (313.15 K, x1 = 0.4387) was 39.8 mPa·s. It also gave an electrical conductivity (313.15 K, x1 = 0.5021) of 0.221 S/m, a viscosity (313.15 K, x1 = 0.5021) of 59.1 mPa·s and an electrical conductivity (313.15 K, x1 = 0.5762) of 0.138 S/m. It also gave a viscosity (313.15 K, x1 = 0.5762) of 65.5 mPa·s, an electrical conductivity (313.15 K, x1 = 0.6827) of 0.11 S/m and a viscosity (313.15 K, x1 = 0.6827) of 97.4 mPa·s. The electrical conductivity (313.15 K, x1 = 0.8153) was 0.0733 S/m, the viscosity (313.15 K, x1 = 0.8153) was 118 mPa·s and the electrical conductivity (313.15 K, x1 = 0.8939) was 0.056 S/m. The viscosity (313.15 K, x1 = 0.8939) was 131 mPa·s, the electrical conductivity (318.15 K, x1 = 0.401) was 0.485 S/m and the viscosity (318.15 K, x1 = 0.401) was 25.7 mPa·s. The electrical conductivity (318.15 K, x1 = 0.4387) was 0.409 S/m, the viscosity (318.15 K, x1 = 0.4387) was 31.6 mPa·s and the electrical conductivity (318.15 K, x1 = 0.5021) was 0.278 S/m. The viscosity (318.15 K, x1 = 0.5021) was 45.9 mPa·s, the electrical conductivity (318.15 K, x1 = 0.6827) was 0.144 S/m and the viscosity (318.15 K, x1 = 0.6827) was 74.1 mPa·s. The electrical conductivity (318.15 K, x1 = 0.8153) was 0.0987 S/m, the viscosity (318.15 K, x1 = 0.8153) was 88.2 mPa·s and the electrical conductivity (318.15 K, x1 = 0.8939) was 0.075 S/m. For the same compound, the viscosity (318.15 K, x1 = 0.8939) was 95.9 mPa·s, the electrical conductivity (323.15 K, x1 = 0.4387) was 0.502 S/m and the viscosity (323.15 K, x1 = 0.4387) was 25.6 mPa·s. It also gave an electrical conductivity (323.15 K, x1 = 0.5021) of 0.34 S/m, a viscosity (323.15 K, x1 = 0.5021) of 36.3 mPa·s and an electrical conductivity (323.15 K, x1 = 0.5762) of 0.232 S/m. For the same compound, the viscosity (323.15 K, x1 = 0.5762) was 39.6 mPa·s, the electrical conductivity (323.15 K, x1 = 0.6827) was 0.184 S/m and the viscosity (323.15 K, x1 = 0.6827) was 57.4 mPa·s. It also gave an electrical conductivity (323.15 K, x1 = 0.8153) of 0.13 S/m, a viscosity (323.15 K, x1 = 0.8153) of 65.4 mPa·s and an electrical conductivity (323.15 K, x1 = 0.8939) of 0.101 S/m. It also gave a viscosity (323.15 K, x1 = 0.8939) of 72.1 mPa·s, an electrical conductivity (328.15 K, x1 = 0.401) of 0.71 S/m and a viscosity (328.15 K, x1 = 0.401) of 17.7 mPa·s. For the same compound, the electrical conductivity (328.15 K, x1 = 0.4387) was 0.603 S/m, the viscosity (328.15 K, x1 = 0.4387) was 20.9 mPa·s and the electrical conductivity (328.15 K, x1 = 0.5762) was 0.288 S/m. It also gave a viscosity (328.15 K, x1 = 0.5762) of 31.6 mPa·s, an electrical conductivity (328.15 K, x1 = 0.8153) of 0.166 S/m and a viscosity (328.15 K, x1 = 0.8153) of 50.6 mPa·s. The electrical conductivity (328.15 K, x1 = 0.8939) was 0.13 S/m, the viscosity (328.15 K, x1 = 0.8939) was 55.6 mPa·s and the electrical conductivity (333.15 K, x1 = 0.401) was 0.838 S/m. The viscosity (333.15 K, x1 = 0.401) was 15 mPa·s, the electrical conductivity (333.15 K, x1 = 0.4387) was 0.727 S/m and the viscosity (333.15 K, x1 = 0.4387) was 17.4 mPa·s. It also gave an electrical conductivity (333.15 K, x1 = 0.5021) of 0.505 S/m, a viscosity (333.15 K, x1 = 0.5021) of 23.8 mPa·s and an electrical conductivity (333.15 K, x1 = 0.5762) of 0.372 S/m. The viscosity (333.15 K, x1 = 0.5762) was 25.7 mPa·s, the electrical conductivity (333.15 K, x1 = 0.6827) was 0.293 S/m and the viscosity (333.15 K, x1 = 0.6827) was 35.8 mPa·s. It also gave an electrical conductivity (333.15 K, x1 = 0.8153) of 0.21 S/m, a viscosity (333.15 K, x1 = 0.8153) of 39.8 mPa·s and an electrical conductivity (333.15 K, x1 = 0.8939) of 0.169 S/m. It also gave a viscosity (333.15 K, x1 = 0.8939) of 43.6 mPa·s, an electrical conductivity (338.15 K, x1 = 0.401) of 0.973 S/m and a viscosity (338.15 K, x1 = 0.401) of 12.8 mPa·s. It also gave an electrical conductivity (338.15 K, x1 = 0.4387) of 0.858 S/m, a viscosity (338.15 K, x1 = 0.4387) of 14.7 mPa·s and an electrical conductivity (338.15 K, x1 = 0.5762) of 0.441 S/m. For the same compound, the viscosity (338.15 K, x1 = 0.5762) was 21.2 mPa·s, the electrical conductivity (338.15 K, x1 = 0.6827) was 0.359 S/m and the viscosity (338.15 K, x1 = 0.6827) was 29.2 mPa·s. For the same compound, the electrical conductivity (338.15 K, x1 = 0.8153) was 0.263 S/m, the viscosity (338.15 K, x1 = 0.8153) was 31.8 mPa·s and the electrical conductivity (338.15 K, x1 = 0.8939) was 0.203 S/m. The viscosity (338.15 K, x1 = 0.8939) was 36.5 mPa·s, the electrical conductivity (343.15 K, x1 = 0.401) was 1.13 S/m and the viscosity (343.15 K, x1 = 0.401) was 11.1 mPa·s. It also gave an electrical conductivity (343.15 K, x1 = 0.4387) of 1.01 S/m, a viscosity (343.15 K, x1 = 0.4387) of 11.9 mPa·s and an electrical conductivity (343.15 K, x1 = 0.5021) of 0.705 S/m. It also gave a viscosity (343.15 K, x1 = 0.5021) of 16.5 mPa·s, an electrical conductivity (343.15 K, x1 = 0.5762) of 0.521 S/m and a viscosity (343.15 K, x1 = 0.5762) of 17.7 mPa·s. The electrical conductivity (343.15 K, x1 = 0.8939) was 0.255 S/m, the viscosity (343.15 K, x1 = 0.8939) was 28.2 mPa·s and the electrical conductivity (348.15 K, x1 = 0.4387) was 1.12 S/m. It also gave a viscosity (348.15 K, x1 = 0.4387) of 10.3 mPa·s, an electrical conductivity (348.15 K, x1 = 0.5021) of 0.808 S/m and a viscosity (348.15 K, x1 = 0.5021) of 14 mPa·s. It also gave an electrical conductivity (348.15 K, x1 = 0.6827) of 0.503 S/m, a viscosity (348.15 K, x1 = 0.6827) of 20.5 mPa·s and an electrical conductivity (348.15 K, x1 = 0.8153) of 0.399 S/m. For the same compound, the viscosity (348.15 K, x1 = 0.8153) was 21.4 mPa·s, the electrical conductivity (348.15 K, x1 = 0.8939) was 0.31 S/m and the viscosity (348.15 K, x1 = 0.8939) was 24.4 mPa·s. It also gave an electrical conductivity (353.15 K, x1 = 0.401) of 1.47 S/m, a viscosity (353.15 K, x1 = 0.401) of 8.8 mPa·s and an electrical conductivity (353.15 K, x1 = 0.4387) of 1.34 S/m. For the same compound, the viscosity (353.15 K, x1 = 0.4387) was 9 mPa·s, the electrical conductivity (353.15 K, x1 = 0.5021) was 0.908 S/m and the viscosity (353.15 K, x1 = 0.5021) was 12 mPa·s. For the same compound, the electrical conductivity (353.15 K, x1 = 0.6827) was 0.601 S/m, the viscosity (353.15 K, x1 = 0.6827) was 16.9 mPa·s and the electrical conductivity (353.15 K, x1 = 0.8153) was 0.37 S/m. The viscosity (353.15 K, x1 = 0.8153) was 17 mPa·s and the viscosity (353.15 K, x1 = 0.8939) was 20.7 mPa·s.
